Laboratory results published in patent US20070092442A1, “F-18-fluorinated phosphonium cation imaging agents and methods of synthesis” (priority 2005, published 2007).

How the values were obtained:
C6 cells [1] = experiment: C6 cell uptake of phosphonium cations determined by MALDI-TOF-MS; format: cell-based, rat; conditions: 5 μM; for rank of uptake in C6 cells among the compounds tested: 25° C.
Experimental: A rat glioma C6 cell line was grown in Dulbecco's modified Eagle medium (DMEM, Invitrogen Life Technologies, Carlsbad, Calif.) high glucose (containing KCl 5.3 mmol/L and NaCl 110.34 mmol/L) plus 10% fetal bovine serum (FBS), and 1% penicillin-streptomycin at 37° C. in 5% CO2/95% air. After trypsinization, cells were washed with 0.01 M phosphate-buffered saline (PBS, pH=7.4) twice and suspended at 10×10^6 cells /mL in low K^+ Hepes buffer (135 mM NaCl/5 mM KCl/1.8 mM CaCl2/0.8 mM MgSO4/50 mM Hepes [4-(-2-hydroxyethyl)-1-piperazineethanesulfonic acid]/5.5 mM dextrose, pH 7.4). 50 μL (0.5×10^6) of C6 cells were incubated with 10 μL 100 μM stock phosphonium salts solution ([…], the structures of these phosphonium cations are shown in FIG. 1) and 140 μL Hepes buffer from 10 to 90 min at room temperature. The cells were centrifuged (250×g) for three minutes and washed twice with cold PBS buffer at specified times. Cell pellets were then lysed with 150 μL cold spectral grade water, following by freezing in dry ice. Right before the MALDI-TOF-MS analysis, the frozen cell solution was thawed and centrifuged at 12000×g for 5 min. 90 μL cell lysate and 10 μL 10 μM internal standard MeTPP were mixed together, and 1 μL solution was subjected to MALDI-TOF-MS analysis. Samples were prepared and analyzed in triplicate.

[2] = MicroPET imaging, biodistribution and pharmacokinetic in normal nude mice; format: in vivo, mouse; conditions: for heart uptake / liver uptake: tail vein, microPET ROI
Experimental: PET imaging of normal nude mice was performed on a microPET R4 rodent model scanner (Concorde Microsystems Inc, Knoxville, Tenn.). The mice were injected with about 10-20 μCi of [^18F]FTPP via the tail vein. At 30 min, 1 hr, 2 hr, and 4 hr post injection, the mice were anesthetized with 2% isoflurane and placed in the prone position and near the center of the filed of view of microPET. The 10-min static scans were obtained, and the images were reconstructed by a two-dimensional ordered subsets expectation maximum (OSEM) algorithm. Regions of interest (ROIs) were then drawn over the […] on decay-corrected whole-body coronal images. The counts per pixel per minute were obtained from the ROI and converted to counts per milliliter per minute by using a calibration constant. By assuming a tissue density of 1 g/mL, the ROIs were converted to counts/g/min. An image ROI-derived percentage ID per gram of tissue (% ID/g) was then determined by dividing counts per gram per minute with injected dose (ID).

C6 cells [3] = experiment: Mitochondrial membrane potential (MMP) dependent uptake of FTPP in C6 cells (CCCP, valinomycin, high K+ Hepes buffer); format: cell-based, rat
Experimental: The extent of MMP and cell membrane potential-dependent cellular uptake of FTPP was further assessed using the C6 cells treated with CCCP, valinomycin, and high K^+ Hepes buffer (5 mM NaCl/135 mM KCl/1.8 mM CaCl2/0.8 mM MgSO4/50 mM Hepes/5.5 mM dextrose, pH 7.4). Carbonylcyanide-m-chlorophenylhydrazone (CCCP), a known protonphore that selectively abolishes the MMP,^26 was dissolved in dimethyl sulfoxide (DMSO) and diluted to desired concentration with low K^+ Hepes buffer. K^+-ionophore valinomycin was dissolved in ethanol and also diluted with low K^+ buffer. Final concentrations of ethanol and DMSO were below 0.1%. Varying concentrations of CCCP and valinomycin were added to the 0.5×10^6 cells in low K^+ Hepes buffer 30 min prior to the start of the experiment. After 1 hr of incubation with 5 μM FTPP, the eppendorf vials were centrifuged, cell lysate were prepared as described above, and the cell uptakes of FTPP were determined using MALDI-TOF-MS. Five sets of 0.5×10^6 cells were also suspended in high K^+ Hepes buffer for 60 min, then exposed to 5 μM FTPP for 10-90 min in high K^+ Hepes buffer. Cell uptake of FTPP was measured by MALDI-TOF-MS. The viability and the integrity of the cells after treatment with inhibitors and high K^+ buffer were examined using Trypan blue.

Row | Compound | rank of uptake in C6 cells among the compounds tested (C6 cells [1]) | heart uptake ([2]; 30 minutes pi) [% ID/g] | liver uptake ([2]; 30 minutes pi) [% ID/g] | heart uptake ([2]; 4 h pi) [% ID/g] | liver uptake ([2]; 4 h pi) [% ID/g] | localization in microPET images ([2]; female nude mouse, 15 μCi) | route of clearance ([2]; female nude mouse, 15 μCi) | uptake in C6 cells as percentage of the TPP uptake (C6 cells [1]; glioma C6 cells in vitro, MALDI-TOF-MS) [%] | FTPP uptake (normalized) in presence of valinomycin (C6 cells [3]; 10 μM valinomycin, 5 μM FTPP, 1 hr, low K+ Hepes buffer) | FTPP uptake (normalized) in presence of CCCP (C6 cells [3]; 50 μM CCCP, 5 μM FTPP, 1 hr, low K+ Hepes buffer) | effect of CCCP or valinomycin on uptake (C6 cells [3]; CCCP 0.1-50 μM, valinomycin 0.1-10 μM, low K+ Hepes buffer) | decrease in uptake on depolarization of the plasma membrane (high K+ vs low K+ buffer) (C6 cells [3]; high K+ Hepes buffer, 90 min exposure time, 5 μM FTPP) [fold]
1 | [Br-].c1ccc([P+](c2ccccc2)(c2ccccc2)c2ccccc2)cc1 [TPP, tetraphenylphosphonium bromide, reference compound] | highest uptake | – | – | – | – | – | – | – | – | – | – | –
2 | [18F]c1ccc([P+](c2ccccc2)(c2ccccc2)c2ccccc2)cc1 [[^18F]FTPP, (4-[^18F]fluorophenyl)triphenylphosphonium] | – | 5.59±0.93 | 7.39±0.36 | 3.89±0.29 | 2.79±0.59 | clearly localized in the heart | mainly cleared out through hepatobiliary system | – | – | – | – | –
3 | Fc1ccc([P+](c2ccccc2)(c2ccccc2)c2ccccc2)cc1 [FTPP, 4-Fluorophenyltriphenyl phosphonium] | 2nd place | – | – | – | – | – | – | 80 | about 72.8±3.6% | about 27.3±2.3% | inhibited by CCCP or valinomycin in dose-dependent manners | 3.5
